Patent publication US20250375511A1 (priority 2024, published 2025)

Experiments:
[1] = Binding of Fe^3+ to BCG: zeta potential (Zeta Sizer Ultra); assay type: physicochemical; settings: in water, 0.04 mg/mL BCG, 100 uM Fe(NO3)3, measured immediately
Description: Zeta potential was measured immediately using a Zeta Sizer Ultra (Malvern).

T24 cells = assay type: cell-based, human
[2] = test system: CT26.WT (mouse colon adenocarcinoma) tumors; design: species or system male BALB/C mice; settings: in vivo

## O=[N+]([O-])[O-].O=[N+]([O-])[O-].O=[N+]([O-])[O-].[Fe+3] [Fe^3+, Fe(NO3)3]
[1]
  zeta potential: not detectable
T24 cells
  cell kill: 1.4%

## Ru(4,4′-dimethyl-2,2′-bipyridine)2(2-(2′,2″:5″,2′″-terthiophene)-imidazo[4,5-f][1,10]phenanthroline) [RUVIDAR]
[2]
  survival: significantly increases survival, but the effect size is small
  tumor growth: tumor growth suppression
